Among the test systems are SF-539 CNS; HCT-116 colon; UACC-257 melanoma; SK-MEL-2 melanoma; OVCAR-8 ovarian; SN12C renal; SW-620 colon; K-562 leukemia; MOLT-4 leukemia; IGROV1 ovarian.
Holding throughout (assay): NCI tumour cell line growth inhibition, 48 h

Each structure is given as a SMILES string.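 Growth conditions: 96-well plates. Treatment: test compound, 48 hours, 5 concentrations. Analysis: linear interpolation between bracketing concentrations; unreached endpoints set to highest concentration. At the GI50, growth is halved. TGI marks complete inhibition of growth.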 Where only a bound is given, the exact number is not on record here.

As for `O=C(Nc1ccc(-n2ccc3c(NC(=O)c4ccccc4)ncnc32)cc1)Nc1ccc(Cl)c(Cl)c1`, the GI50 with SF-539 CNS is 1.32 µM; in the test on HCT-116 colon, 1.66 µM; in the test on UACC-257 melanoma it was 3.57 µM; in the test on SK-MEL-2 melanoma it was 5.2 µM; in the test with OVCAR-8 ovarian, 2.38 µM; in the test on SN12C renal, 4.76 µM. Further, the GI50 with SW-620 colon was 1.54 µM; in the test with K-562 leukemia it was 1.73 µM; in the test on MOLT-4 leukemia it was 2.75 µM; in the test with IGROV1 ovarian, 7.16 µM. Further, the TGI in the test on SF-539 CNS was determined as 10.3 µM; in the test on HCT-116 colon, 5.06 µM; with UACC-257 melanoma, 10.8 µM; in the test on SK-MEL-2 melanoma, 12.9 µM; in the test with OVCAR-8 ovarian, 8.6 µM; in the test on SN12C renal, 12.3 µM. Moreover, the TGI is 5.31 µM in the test on SW-620 colon, 6.75 µM in the test on K-562 leukemia, 12.9 µM in the test with MOLT-4 leukemia and 18.2 µM with IGROV1 ovarian.

For the compound `COc1ccc(/C=C2\CCS(=O)(=O)c3ccccc3C2=O)cc1`, the TGI with SF-539 CNS turned out to be 67.4 µM; in the test with HCT-116 colon, 31.2 µM; in the test on UACC-257 melanoma it was 56.5 µM; in the test with SK-MEL-2 melanoma it was 96.4 µM; with OVCAR-8 ovarian, 53.4 µM; in the test on SN12C renal, 77.3 µM. For the same compound, the TGI is 49.1 µM in the test with SW-620 colon, over 100 µM in the test with K-562 leukemia, 65.2 µM with MOLT-4 leukemia and 43.1 µM in the test with IGROV1 ovarian.

With `Cc1cccc2c1c(=O)c1c(O)c3c(cc1n2C)OC(C)(C)C=C3`, the TGI in the test with SF-539 CNS, with HCT-116 colon, in the test with UACC-257 melanoma, with SK-MEL-2 melanoma, with OVCAR-8 ovarian and with SN12C renal was over 10 µM in each case. The TGI in the test with SW-620 colon, with K-562 leukemia, in the test with MOLT-4 leukemia and in the test on IGROV1 ovarian was over 10 µM in each case.

For the compound `CCOC(=O)C1(C(=O)OCC)OC(C)=NC1(C(=O)OC)C(=O)OC`, the TGI in the test with SF-539 CNS, with HCT-116 colon, with UACC-257 melanoma, in the test on SK-MEL-2 melanoma, with OVCAR-8 ovarian and in the test with SN12C renal was over 100 µM in each case. The TGI in the test on SW-620 colon, in the test on K-562 leukemia, with MOLT-4 leukemia and with IGROV1 ovarian was over 100 µM throughout.

In the case of `CCOC(=O)C(Cc1ccc(OC(=O)c2ccc(OC)cc2)cc1)NC(=O)C(F)(F)F` (stereo not given), the TGI with SF-539 CNS, in the test with HCT-116 colon, with UACC-257 melanoma, in the test with SK-MEL-2 melanoma, with OVCAR-8 ovarian and with SN12C renal was over 100 µM in each case. Further, the TGI with SW-620 colon, in the test on K-562 leukemia, with MOLT-4 leukemia and in the test with IGROV1 ovarian was over 100 µM throughout.

Turning to `CN(/N=C/c1cccc2cccnc12)c1ccc(Cl)cc1[N+](=O)[O-]`, the TGI in the test on SF-539 CNS, in the test with HCT-116 colon, in the test with UACC-257 melanoma, in the test with SK-MEL-2 melanoma, with OVCAR-8 ovarian and in the test on SN12C renal was over 100 µM in each case. The TGI in the test on SW-620 colon, in the test on K-562 leukemia, in the test on MOLT-4 leukemia and in the test with IGROV1 ovarian was over 100 µM in each case.

Take `Cc1ccc(O)c(C2=CC(c3cccc(Cl)c3)SC(N)=N2)c1` (stereo not given): the TGI in the test on SF-539 CNS is 53.1 µM; in the test on HCT-116 colon it was 39.7 µM; in the test with UACC-257 melanoma, 46.8 µM; in the test on SK-MEL-2 melanoma, 38.2 µM; with OVCAR-8 ovarian, over 100 µM; in the test with SN12C renal it was 34.7 µM. Also, the TGI with SW-620 colon was 65.9 µM; in the test on K-562 leukemia, 55.5 µM; in the test with MOLT-4 leukemia, 61.4 µM; in the test on IGROV1 ovarian, 46.5 µM.

With `CC(=O)Nc1c(C)cc2c(nc3n2CCC3OC(C)=O)c1[N+](=O)[O-]` (stereo not given), the TGI in the test on SF-539 CNS, with HCT-116 colon, in the test on UACC-257 melanoma, in the test with SK-MEL-2 melanoma, in the test on OVCAR-8 ovarian and in the test on SN12C renal was over 100 µM each time. In addition, the TGI in the test with SW-620 colon, with K-562 leukemia, in the test on MOLT-4 leukemia and in the test on IGROV1 ovarian was over 100 µM in each case.

Regarding `COC1C(O)C(n2ncc3c(SC)nc(SC)nc32)OC1C(O)CO` (stereo not given), the TGI in the test with SF-539 CNS was over 100 µM; in the test on HCT-116 colon, over 100 µM; with UACC-257 melanoma it was over 55.8 µM; in the test on SK-MEL-2 melanoma, over 100 µM; in the test on OVCAR-8 ovarian, over 100 µM; with SN12C renal, over 100 µM. Besides, the TGI in the test with SW-620 colon, with K-562 leukemia, in the test on MOLT-4 leukemia and in the test on IGROV1 ovarian was over 100 µM in each case.

For the compound `Cc1ccc(S(=O)(=O)Oc2nc3ccccc3nc2OS(=O)(=O)c2ccc(C)cc2)cc1`, the TGI in the test with SF-539 CNS, in the test on HCT-116 colon, in the test on UACC-257 melanoma, in the test with SK-MEL-2 melanoma, in the test with OVCAR-8 ovarian and with SN12C renal was over 100 µM each time. Besides, the TGI in the test with SW-620 colon, with K-562 leukemia, with MOLT-4 leukemia and in the test with IGROV1 ovarian was over 100 µM throughout.

(Values after PubChem BioAssay (NCI).)
